Patent publication US5430058A, “Pharmaceutical compositions comprising hydroxamate derivatives for iron removal” (Yeda Research and Development Co. Ltd., priority 1993, dated 1995)
Entries after “also recorded” stand apart in the source; their conditions may differ.

Key:
[1] = test system: trophozoite cultures of P. falciparum; assay: Neutralization of drug induced inhibition by addition of iron(III); type: cell-based, Plasmodium falciparum; conditions: stoichiometric addition of iron(III) salt / applied as iron(III)-complexes
Experimental: i. Neutralization of drug induced inhibition by addition of iron (III). Preformed ferric iron-carrier complexes were prepared by addition of increasing amounts of FeCl3 (in methanol) to a DMSO solution containing the indicated concentration of chelator. The mixtures were incubated for 1 hour at room temperature and added to microculture wells at the trophozoite stage at final concentrations of 30 μg/ml (for desferrioxamine) and 5 μg/ml (for reversed siderophores).
In order to assess this point, it was examined whether the reversed siderophores cause growth inhibition by virtue of iron deprivation (extraction at the level of the infected cell), as compared to formation of toxic iron complexes, the effect of chelator on trophozoite cultures was examined in the presence of increasing amounts of ferric salt. […] The concentration of drug used was the IC50 value depicted in Table 1. […] The complexes were evidently non-toxic to parasites, thus ruling out chelated iron-mediated lipid peroxidation as the modus of operandii of the drugs, a mechanism of antimalarial activity that has been proposed for other iron chelators. […]

[2] = test system: mammalian cells in culture; assay: Growth/toxicity in mammalian cells in culture, general statement; type: cell-based
Experimental: The possibility that the reversed siderophores might affect mammalian cells in culture was assessed in conditions identical to those used for parasites in cultures. […] Nucleic acid synthesis was measured in cultures of mouse NIH 3T3 fibroblasts and human HT29 colonic carcinoma cells in the presence of either SF1-ileu (open circles), desferrioxamine (DFO) (solid triangle) in DMSO or DMSO alone (Control) (<1% final) (open triangles) at same concentrations. Cultures at confluence were exposed to chelators for 24 hours; the first 3 hours without radiolabel and 21 hours with 6 μCi/ml of [^3 H]-hypoxanthine. Extracellular hypoxanthine was removed by several washes with PBS and the cells were treated with 5% TCA for 15 minutes at 5° C. and solubilized with hot 2.5% SDS. Samples were taken for counting of radioactivity and measurement of protein (BCA, Pierce). Data are given as dpm/μg protein and SD (duplicate samples).

uninfected red cells = assay: Pre-incubation of uninfected red cells with chelator, effect on parasite growth; type: cell-based, human
Experimental: h. The effect of pre-incubation of red cells or plasma with drug on parasite growth. Red cell suspensions (5% hematocrit) in RPMI 1640 medium pH 7.4 (no plasma) were treated for 24-48 hrs with either 100 μg/ml of chelator or DMSO alone (<1% final concentration) in culture conditions. Chelator was removed by washing the cells 4 times with RPMI followed by 1 hour incubation at 37° C. Parasite growth was assayed after addition of gelatin enriched schizonts (>90%) as described above. Human plasma (2 ml) from O+ donors was adjusted to either pH 5 with MES (to enhance chelating efficiency) or pH 7.4 (with TRIS base), and treated for 18 hrs with 100 μg/ml chelators or with DMSO. The plasma was subsequently dialyzed for 24 hours against 800 ml 0.1% bovine serum albumin (BSA), and 10 mM glucose in phosphate buffered saline (PBS) pH 7.4, followed by an additional 24 hour dialysis against 400 ml of the same buffer and supplemented to the medium for parasite growth assays.
Plasma and uninfected red cells were separately treated with relatively high concentrations of chelators (100 μg/ml) in order to evaluate whether the site of action of the lipophilic chelators was associated with components of the plasma and/or the uninfected red cell.

Plasmodium falciparum = assay: Antimalarial activity, general comparison and statements; type: cell-based
Experimental: g. Bioassay of iron carrier antimalarial activity. The antimalarial activity was assayed by adding the compounds from concentrated stock solutions (in DMSO) to microcultures (24 wells, Costar) containing infected red cells (2.5% hematocrit and 2% parasitemia). The cultures were usually synchronized (4-7 hrs. windows) by incubation in 300 mM Ala, 10 mM TRIS-Cl in conjunction with gelatin flotation and used either at the trophozoite (1-2% parasitemia) or at the ring stage (4-6% parasitemia) of the erythrocyctic cycle. After the indicated time of incubation with drug and either previous to or after washing 3 times with 100 volumes growth medium, the cells were supplemented with 6 μCi of either [^3 H]-hypoxanthine or [^3 H]-Ileu (Amersham, England) per well and parasite growth assessed after 24-48 hours by harvesting the labelled cells onto glass-fiber filters (Tamar, Inc. Jerusalem) and counting of the radioactivity.
The antimalarial activity of the different chelators was initially evaluated on cultures of trophozoites which were exposed for 24 hours to different concentrations of chelators. Following that period, [^3 H]-hypoxanthine or [^3 H]-Ileu were added and 24 hours later the parasitemia and incorporation of label into macromolecular material was determined.

[3] = Extraction of iron from aqueous FeCl3/citrate into chloroform; type: physicochemical; conditions: 0.3 mM in chloroform vs 0.3 mM FeCl3, 0.3 mM citric acid, 40 mM TRIS, pH 6.9, overnight
Experimental: d. Extractions were performed by overnight equilibration of 0.3 mM chloroform solutions of reversed siderophore with aqueous solutions of 0.3 mM FeCl3, 0.3 mM citric acid, 40 mM TRIS, pH 6.9. The amount of iron taken up into the organic phase was determined by the absorption of the iron+complex at 430 nm. No iron uptake into chloroform solutions devoid of RSF was observed by ion chromatography.

Row | SMILES | Effect of iron(III) on antimalarial activity [1] | Growth of / toxicity to mammalian cells in culture [2] | Ability of red cells to support parasite growth after pre-treatment (uninfected red cells; 24 hour exposure, 40 fold IC50, then washing) | Effect on ability of uninfected cells to support parasite growth (uninfected red cells; general statement) | Efficiency relative to DFO (Plasmodium falciparum; 24-48 hours exposure, various strains) | Speed of action relative to desferrioxamine (Plasmodium falciparum; faster acting than desferrioxamine) | Arrest of parasite growth (Plasmodium falciparum; infected red blood cells) | Potency relative to desferrioxamine (Plasmodium falciparum; more potent than desferrioxamine) | Extraction efficiency [3]
1 | CC(=O)N(O)CCCCCNC(=O)CCC(=O)N(O)CCCCCNC(=O)CCC(=O)N(O)CCCCCN [DFO, desferrioxamine B, reference compound] | fully averted their antimalarial activity |  |  |  |  |  |  |  | 
2 | CC[C@H](C)[C@H](NC(=O)CCOCC(CC)(COCCC(=O)N[C@H](C(=O)N(C)O)[C@@H](C)CC)COCCC(=O)N[C@H](C(=O)N(C)O)[C@@H](C)CC)C(=O)N(C)O [SF1-ileu] |  | does not affect the growth of various types of mammalian cells in culture; also recorded: not toxic to mammalian cells in culture | no significant effect | does not affect irreversibly the ability of uninfected cells to support parasite growth | 6-13 fold | 20 fold | arresting parasite growth irreversibly within a few hours | 15 fold | 52
